Assay results as given in ChEMBL document CHEMBL4392888, “Isolation of Sesquiterpene-Amino Acid Conjugates, Onopornoids A-D, and a Flavonoid Glucoside from Onopordum alexandrinum” (J Nat Prod, 2019).

How the values were obtained:
Leishmania = assay: Antimicrobial activity against Leishmania; type: functional, organism-based
Bacteria = assay: Antimicrobial activity against bacteria; type: functional, organism-based
Tyrosinase = biological target: T1, Tyrosinase (Homo sapiens, UniProt P14679); assay: Inhibition of tyrosinase (unknown origin)
T1 sequence (P14679 whole entry): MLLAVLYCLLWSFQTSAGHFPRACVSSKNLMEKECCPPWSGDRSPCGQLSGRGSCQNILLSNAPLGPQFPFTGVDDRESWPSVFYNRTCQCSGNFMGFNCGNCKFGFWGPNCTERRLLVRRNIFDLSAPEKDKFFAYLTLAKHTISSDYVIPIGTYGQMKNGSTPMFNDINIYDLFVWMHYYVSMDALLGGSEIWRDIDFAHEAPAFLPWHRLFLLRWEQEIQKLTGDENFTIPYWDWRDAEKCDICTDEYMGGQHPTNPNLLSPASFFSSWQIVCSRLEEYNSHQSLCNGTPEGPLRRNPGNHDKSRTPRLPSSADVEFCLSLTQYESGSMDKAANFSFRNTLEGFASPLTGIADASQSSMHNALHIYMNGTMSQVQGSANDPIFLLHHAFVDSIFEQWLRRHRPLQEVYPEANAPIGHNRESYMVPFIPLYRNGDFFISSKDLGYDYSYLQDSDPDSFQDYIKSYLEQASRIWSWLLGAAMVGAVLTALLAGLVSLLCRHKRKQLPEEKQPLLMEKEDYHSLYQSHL

[1] = Antioxidant activity assessed as DPPH radical scavenging activity incubated for 30 mins by UV-spectrophotometric method; type: functional

Row | Compound | IC50 (Leishmania) | IC50 (Bacteria) | IC50 (Tyrosinase) | IC50 [1]
1 | C[C@@H]1O[C@@H](OC[C@H]2O[C@@H](Oc3cc(O)c4c(=O)cc(-c5ccc(O)cc5)oc4c3)[C@H](O)[C@@H](O)[C@@H]2O)[C@H](O)[C@H](O)[C@H]1O [ISORHOIFOLIN] | > 50 µM | > 50 µM | > 50 µM | 
2 | COC(=O)[C@H]1O[C@@H](Oc2cc(O)c3c(=O)cc(-c4ccc(OC)cc4)oc3c2)[C@H](O)[C@@H](O)[C@@H]1O | > 50 µM | > 50 µM | > 50 µM | 
3 | C[C@@H]1O[C@@H](Oc2cc(O)c3c(=O)cc(-c4ccc(O)cc4)oc3c2)[C@H](O)[C@H](O)[C@H]1O | > 50 µM | > 50 µM | > 50 µM | 
4 | O=C(/C=C/c1ccc(O)c(O)c1)O[C@H]1[C@H](O)[C@@H](O)[C@H](Oc2cc(O)c3c(=O)cc(-c4ccc(O)c(O)c4)oc3c2)O[C@@H]1CO | > 50 µM | > 50 µM | > 50 µM | 68.9 µM
5 | C=C[C@]1(C)C[C@H](OC(=O)/C(=C/C)CO)[C@@H]2[C@H](OC(=O)[C@H]2CN2CCC[C@H]2C(=O)O)[C@H]1C(=C)CO | > 50 µM | > 50 µM | > 50 µM | 
6 | O=c1cc(-c2ccc(O)cc2)oc2cc(O[C@@H]3O[C@H](CO)[C@@H](O)[C@H](O)[C@H]3O)cc(O)c12 [APIGETRIN] | > 50 µM | > 50 µM | > 50 µM | 
7 | C=C[C@]1(C)C[C@H](OC(=O)C(=C)CO)[C@@H]2[C@H](OC(=O)[C@H]2CN2CCC[C@H]2C(=O)O)[C@H]1C(=C)CO | > 50 µM | > 50 µM | > 50 µM | 

Next, values leading:

Row | IC50 (Leishmania) | IC50 (Bacteria) | IC50 (Tyrosinase) | IC50 [1] | Compound
8 | > 50 µM | > 50 µM | > 50 µM |  | COC(=O)[C@H]1O[C@@H](Oc2cc(O)c3c(=O)cc(-c4ccc(O)cc4)oc3c2)[C@H](O)[C@@H](O)[C@@H]1O
9 | > 50 µM | > 50 µM | > 50 µM |  | COc1ccc(-c2cc(=O)c3c(O)cc(O[C@@H]4O[C@H](CO)[C@@H](O)[C@H](O)[C@H]4O)cc3o2)cc1 [TILIANINE]
10 | > 50 µM | > 50 µM | > 50 µM |  | COc1ccc(C[C@H]2COC(=O)[C@@H]2Cc2ccc(O[C@@H]3O[C@H](CO)[C@@H](O)[C@H](O)[C@H]3O)c(OC)c2)cc1OC [ARCTIIN]
11 | > 50 µM | > 50 µM | > 50 µM |  | COc1ccc(-c2cc(=O)c3c(O)cc(O[C@@H]4O[C@H](CO[C@@H]5O[C@@H](C)[C@H](O)[C@@H](O)[C@H]5O)[C@@H](O)[C@H](O)[C@H]4O)cc3o2)cc1 [ACACIIN]
12 | > 50 µM | > 50 µM | > 50 µM |  | C=C(CO)C(=O)O[C@H]1C/C(C)=C/CC/C(CO)=C/[C@H]2OC(=O)[C@@H](CN3CCC[C@H]3C(=O)O)[C@H]12
13 | > 50 µM | > 50 µM | > 50 µM |  | C=C[C@]1(C)C[C@H](OC(=O)[C@@H](C)CO)[C@@H]2[C@H](OC(=O)[C@H]2CN2CCC[C@H]2C(=O)O)[C@H]1C(=C)CO
14 | > 50 µM | > 50 µM | > 50 µM | 75.3 µM | O=c1c(O[C@@H]2O[C@H](CO)[C@@H](O)[C@H](O)[C@H]2O)c(-c2ccc(O)c(O)c2)oc2cc(O)cc(O)c12 [ISOQUERCETIN]
